From patent publication US20250223628A1, “METHODS OF IMPROVING SURVIVAL AND ELIMINATING TREATMENT-LIMITING TOXICITIES OF DICHLOROACETATE IN PATIENTS WITH PYRUVATE DEHYDROGENASE COMPLEX DEFICIENCY” (SAOL INTERNATIONAL DEVELOPMENT LTD., priority 2024, published 2025)
Like-named read-outs stand apart in the source and are kept apart here.

Tests used:
[1] = system: patients with PDCD; assay: Prospective, randomized, double-blind, placebo-controlled crossover study with GSTZ1 haplotype-based DCA dosing and open-label extension; type: in vivo, human
Method: A prospective, randomized, double-blind, placebo-controlled crossover study was conducted in patients with PDCD. This study was the first study to prospectively use GSTZ1 haplotype testing to identify a dose that may help to mitigate the risk of peripheral neuropathy from chronic administration of DCA. These patients were treated with either DCA or placebo for 4 months, provided placebo for a 1-month washout period and then were placed on the placebo or DCA, whichever they had not taken prior. Patients then had the option to continue on open-label DCA until the ultimate completion of the study or regulatory approval. 34 PDCD patients were recruited into the study. 7 (21%) of these patients were prospectively identified as “slow metabolizers”. Rather than having a dose of 25 mg/kg/day, these patients were provided DCA doses at 12.5 mg/kg/day. Both dosing groups took DCA in two equal, weight-based doses. This was the first prospective study completed using the haplotype testing and conducted solely in the PDCD patient population.
The study had anticipated a 20% dropout rate due to death or peripheral neuropathy.

[2] = system: patients with PDCD; assay: Survival analysis of DCA treatment cohort versus DeBrosse natural history cohort; type: in vivo, human; conditions: for Adjusted Odds Ratio (95% CI): DCA vs natural history
Method: As a result, an analysis procedure was identified that used the data available in the DeBrosse natural history study to assess whether or not DCA extended life. The analysis was conducted to answer the following questions: • a. Did the year of birth have any effect on survival? For example, has standard of care improved. • b. Is the primary driver of survival differences from natural history driven by the ketogenic diet, the current standard of care, although empirical approach to managing PDCD patients? • c. Once the population is controlled for an index age, gender and age of disease onset, does DCA provide a survival benefit? • d. Once the population is controlled for an index age and age of disease onset, does DCA provide a survival benefit? • e. Once the population has the maximum duration of follow-up, including with patients that discontinued treatment, does DCA provide a survival benefit?
After accounting for two patients with multiple exclusion criteria, 34 patients (14 males and 20 females) from the DeBrosse study remain for potential matching for the current analyses.
Baseline characteristics related to drug and non-drug treatment, age at the earliest recorded of first related symptom, initiation of the ketogenic diet or diagnosis and other baseline demographics were compared for each analysis. It was notable that the Phase III cohort had more females. This was controlled by conducting a 1:1 matched cohort in the primary analysis that requires gender matching.
A summary of all analyses conducted with both Kaplan-Meier log-rank statistics and hazard/odds ratio reductions are provided below: […]

[3] = cited from earlier work
[4] = system: patients with congenital lactic acidosis (CLA); conditions: 25 mg/kg broken into two daily doses, cited from earlier work
[5] = Abdelmak 2013, Congenital Lactic Acidosis, 8 total patients
[6] = Dunbar 2014, Recurrent Malignant Brain Tumor, 8 total patients
[7] = Kaufmann 2006, MELAS, 15 total patients
[8] = Michelakis 2017, Pulmonary Arterial Hypertension, 20 total patients
[9] = Stacpoole 2008, Congenital Lactic Acidosis, 36 total patients

O=C(O)C(Cl)Cl [DCA, Dichloroacetate]
Completion of the double-blind portion ([1]; 34 PDCD patients, 25 or 12.5 mg/kg/day by haplotype): all of the patients completed
Dropouts for other reasons ([1]; double-blind portion): zero
Events of peripheral neuropathy ([1]; double-blind study): zero
Events of neuropathy possibly related to therapy ([1]; open-label phase, occurred after 18 months of exposure): one
Adjusted Odds Ratio (95% CI) ([2]; Full Cohort Comparison, multivariate P 0.0065): 0.014
Adjusted Odds Ratio (95% CI) ([2]; Matched on Age and Sex, Excluding 1980s Patients with Extended Follow-Up, multivariate P 0.0055): 0.023
Adjusted Odds Ratio (95% CI) ([2]; Matched on Age and Sex, Excluding 1980s Patients, multivariate P 0.0033): 0.0072
Adjusted Odds Ratio (95% CI) ([2]; Matched on Age, multivariate P 0.0012): 0.0071
Adjusted Odds Ratio (95% CI) ([2]; Matched on Sex and Follow-Up Duration, multivariate P 0.024): 0.026
Adjusted Odds Ratio (95% CI) ([2]; Primary Analysis with Extended Follow-Up, multivariate P 0.0029): 0.013
Adjusted Odds Ratio (95% CI) ([2]; Primary Analysis: Matched on Age and Sex, multivariate P 0.0061): 0.011
DCA Treatment Cohort Mortality Rate (95% CI) ([2]; Full Cohort Comparison, N 33, log rank P 0.003): 0.00
DCA Treatment Cohort Mortality Rate (95% CI) ([2]; Matched on Age and Sex with Replacement with Extended Follow-Up, N 31, log rank P 0.0443): 1.38
DCA Treatment Cohort Mortality Rate (95% CI) ([2]; Matched on Age and Sex with Replacement, N 31, log rank P 0.0295): 0.00
DCA Treatment Cohort Mortality Rate (95% CI) ([2]; Matched on Age and Sex with Unknown Onset Imputed at 0, N 28, log rank P 0.0273): 0.00
DCA Treatment Cohort Mortality Rate (95% CI) ([2]; Matched on Age and Sex with Unknown Onset Imputed at 0 with Extended Follow-Up, N 28, log rank P 0.0357): 1.55
DCA Treatment Cohort Mortality Rate (95% CI) ([2]; Matched on Age and Sex, Excluding 1980s Patients with Extended Follow-Up, N 25, log rank P 0.0899): 1.74
DCA Treatment Cohort Mortality Rate (95% CI) ([2]; Matched on Age and Sex, Excluding 1980s Patients, N 25, log rank P 0.0255): 0.00
DCA Treatment Cohort Mortality Rate (95% CI) ([2]; Matched on Age, N 32, log rank P 0.0019): 0.00
DCA Treatment Cohort Mortality Rate (95% CI) ([2]; Matched on Sex and Follow-Up Duration, N 28, log rank P 0.0211): 0.00
DCA Treatment Cohort Mortality Rate (95% CI) ([2]; Primary Analysis with Extended Follow-Up, N 28, log rank P 0.0357): 1.55
DCA Treatment Cohort Mortality Rate (95% CI) ([2]; Primary Analysis: Matched on Age and Sex, N 28, log rank P 0.0273): 0
Peripheral Neuropathy Adverse Event Rate [3, 5]: 38%
Peripheral Neuropathy Adverse Events [3, 5]: 3
Peripheral Neuropathy Adverse Event Rate [3, 6]: 25%
Peripheral Neuropathy Adverse Events [3, 6]: 2
Peripheral Neuropathy Adverse Event Rate [3, 7]: 100%
Peripheral Neuropathy Adverse Events [3, 7]: 15
Peripheral Neuropathy Adverse Event Rate [3, 8]: 25%
Peripheral Neuropathy Adverse Events [3, 8]: 5
Peripheral Neuropathy Adverse Event Rate [3, 9]: 36%
Peripheral Neuropathy Adverse Events [3, 9]: 13
Peripheral Neuropathy Adverse Events ([3]; Total of five studies, 87 total patients): 38
Peripheral Neuropathy Adverse Event Rate ([3]; Total of several studies across multiple disease states, 87 total patients): 44%
Dose required for a similar pharmacokinetic exposure ([3]; slow metabolizer group of GSTZ1 haplotypes, fraction of the dose): roughly ½
Recovery from peripheral neuropathy exhibited during DCA administration ([3]; time to recovery): ≤ 9 months
Patients who experienced peripheral neuropathy ([4]; double blind portion): 36%
Patients who experienced peripheral neuropathy ([4]; long-term extension arm): 38%
